# Counter-ions that a name gives are not always drawn.
# Test system: MC3T3-E1 cells
# Assay: ALP activity, differentiation of osteoblast cells
# Type: cell-based
# Settings: Mus musculus, MC3T3-E1, 144 h; MC3T3E1 cells treated with 10 μM compound and OF; relates activity to OF-only group (100%); higher = more efficacious
# Description: To examine the effects of the inventive indenone derivatives on the differentiation and activation of osteoblast cells, the activity and expression of alkaline phosphatase (ALP), a marker for the differentiation of osteoblast cells, and the bone nodule formation using a mouse derived osteoblast-like cells, MC3T3-E1 (ATCC, Japan) or a primary mouse calvaria derived preosteoblastic cells were observed.
# MC3T3-E 1 cells were seeded in a medium containing osteogenic factors (OF) such as ascorbic acids and β-glycerophosphates (b-GP), and each compound of Examples was added thereto at a concentration of 0.1, 1 and 10 μM. The cells were incubated for 6 days (MC3T3-E1 cells) or 7 days (primary mouse calvaria derived preosteoblastic cells) in a 37° C. CO2 incubator. Then, the culture medium was replaced with a fresh medium together with the test compound every two or three days. On the last day, the medium was centrifuged to remove the supernatant, and the cells were washed with PBS. The washed cells were subjected to a 3-cycle freege-thaw treatment using a −70° C. deep freezer to allow enzymes elute in a lysis buffer. The lysed protein was quantified, followed by measurement of ALP activity using 4-nitrophenylphosphate.
# Further, a group treated only with DMSO or OF was tested for ALP activities for comparison.
row,Structure (SMILES),activity at 10 µM [%]
1,"COc1ccc(C2=C(c3ccccc3)c3ccc(OCCN4CCOCC4)cc3C2=O)cc1F [Example 2, 6-(2-morpholinoethoxy)-2-(3-fluoro-4-methoxyphenyl)-3-phenyl-1H-inden-1-one]",221
2,"O=C1C(c2cnc3ccccc3c2)=C(c2ccccc2)c2ccc(OCCN3CCOCC3)cc21 [Example 3, 6-(2-morpholinoethoxy)-3-phenyl-2-(quinolin-3-yl)-1H-inden-1-one]",216
3,"NC(=O)c1ccc(C2=C(c3ccccc3)c3ccc(OCCN4CCOCC4)cc3C2=O)cc1 [Example 4, 4-(6-(2-morpholinoethoxy)-1-oxo-3-phenyl-1H-inden-2-yl)benzamide]",128
4,"N#Cc1cccc(C2=C(c3ccccc3)c3ccc(OCCN4CCOCC4)cc3C2=O)c1 [Example 5, 3-(6-(2-morpholinoethoxy)-1-oxo-3-phenyl-1H-inden-2-yl)benzonitrile]",44
5,"COc1ccc(C2=C(c3ccccc3)c3ccc(OCCN4CCOCC4)cc3C2=O)cn1 [Example 6, 6-(2-morpholinoethoxy)-2-(6-methoxypyridin-3-yl)-3-phenyl-1H-inden-1-one]",63
6,"O=C1C(c2ccc(F)nc2)=C(c2ccccc2)c2ccc(OCCN3CCOCC3)cc21 [Example 9, 6-(2-morpholinoethoxy)-2-(6-fluoropyridin-3-yl)-3-phenyl-1H-inden-1-one]",87
7,"O=C1C(c2ccc(-c3ccccc3)cc2)=C(c2ccccc2)c2ccc(OCCN3CCOCC3)cc21 [Example 10, 6-(2-morpholinoethoxy)-2-(4-(phenyl)phenyl)-3-phenyl-1H-inden-1-one]",172
8,"Cc1ccc(C2=C(c3ccccc3)c3ccc(OCCN4CCOCC4)cc3C2=O)cc1 [Example 11, 6-(2-morpholinoethoxy)-3-phenyl-2-p-tolyl-1H-inden-1-one]",649
9,"N#Cc1ccccc1C1=C(c2ccccc2)c2ccc(OCCN3CCOCC3)cc2C1=O [Example 12, 2-(6-(2-morpholinoethoxy)-1-oxo-3-phenyl-1H-inden-2-yl)benzonitrile]",365
10,"O=C1C(c2ccc(C(F)(F)F)cc2)=C(c2ccccc2)c2ccc(OCCN3CCOCC3)cc21 [Example 13, 6-(2-morpholinoethoxy)-2-(4-(trifluoromethyl)phenyl)-3-phenyl-1H-inden-1-one]",151
11,"CC(=O)Nc1cccc(C2=C(c3ccccc3)c3ccc(OCCN4CCOCC4)cc3C2=O)c1 [Example 14, N-(3-(6-(2-morpholinoethoxy)-1-oxo-3-phenyl-1H-inden-2-yl)phenyl)acetamide]",131
12,"O=C1C(c2cncc3ccccc23)=C(c2ccccc2)c2ccc(OCCN3CCOCC3)cc21 [Example 15, 6-(2-morpholinoethoxy)-2-(isoquinolin-4-yl)-3-phenyl-1H-inden-1-one]",65
13,"O=C1C(c2ccc3ccccc3c2)=C(c2ccccc2)c2ccc(OCCN3CCOCC3)cc21 [Example 16, 6-(2-morpholinoethoxy)-2-(naphthalen-3-yl)-3-phenyl-1H-inden-1-one]",713
14,"O=C1C(c2ccc(F)cc2)=C(c2ccccc2)c2ccc(OCCN3CCOCC3)cc21 [Example 17, 6-(2-morpholinoethoxy)-2-(4-fluorophenyl)-3-phenyl-1H-inden-1-one]",236
15,"O=C1C(c2ccc(F)c(F)c2)=C(c2ccccc2)c2ccc(OCCN3CCOCC3)cc21 [Example 18, 6-(2-morpholinoethoxy)-2-(3,4-difluorophenyl)-3-phenyl-1H-inden-1-one]",349
16,"Cc1ccc(C2=C(c3ccccc3)c3ccc(OCCN4CCOCC4)cc3C2=O)cc1F [Example 19, 6-(2-morpholinoethoxy)-2-(3-fluoro-4-methylphenyl)-3-phenyl-1H-inden-1-one]",220
17,"Nc1cccc(C2=C(c3ccccc3)c3ccc(OCCN4CCOCC4)cc3C2=O)c1 [Example 20, 6-(2-morpholinoethoxy)-2-(3-aminophenyl)-3-phenyl-1H-inden-1-one]",283
18,"O=C1C(c2ccc(Oc3ccccc3)cc2)=C(c2ccccc2)c2ccc(OCCN3CCOCC3)cc21 [Example 21, 6-(2-morpholinoethoxy)-2-(4-phenoxyphenyl)-3-phenyl-1H-inden-1-one]",130
19,"COc1ccc(C2=C(c3ccccc3)c3ccc(OCCN4CCOCC4)cc3C2=O)cc1 [Example 22, 6-(2-morpholinoethoxy)-2-(4-methoxyphenyl)-3-phenyl-1H-inden-1-one]",169

row,Structure (SMILES),activity at 10 µM [%]
1,"O=C1C(c2ccc(Cl)cc2)=C(c2ccccc2)c2ccc(OCCN3CCOCC3)cc21 [Example 23, 6-(2-morpholinoethoxy)-2-(4-chlorophenyl)-3-phenyl-1H-inden-1-one]",162
2,"O=C1C(c2cccnc2)=C(c2ccc(F)cc2)c2ccc(OCCN3CCOCC3)cc21 [Example 24, 6-(2-morpholinoethoxy)-3-(4-fluorophenyl)-2-(pyridin-3-yl)-1H-inden-1-one]",121
3,"O=C1C(c2cncnc2)=C(c2ccc(F)cc2)c2ccc(OCCN3CCOCC3)cc21 [Example 25, 6-(2-morpholinoethoxy)-3-(4-fluorophenyl)-2-(pyrimidin-5-yl)-1H-inden-1-one]",105
4,"O=C1C(c2ccc(F)c(F)c2)=C(c2ccc(F)cc2)c2ccc(OCCN3CCOCC3)cc21 [Example 26, 6-(2-morpholinoethoxy)-2-(3,4-difluorophenyl)-3-(4-fluorophenyl)-1H-inden-1-one]",79
5,"O=C1C(c2ccc(C(F)(F)F)cc2)=C(c2ccc(F)cc2)c2ccc(OCCN3CCOCC3)cc21 [Example 27, 6-(2-morpholinoethoxy)-2-(4-(trifluoromethyl)phenyl)-3-(4-fluorophenyl)-1H-inden-1-one]",75
6,"O=C1C(c2cccnc2)=C(c2ccc(Cl)cc2)c2ccc(OCCN3CCOCC3)cc21 [Example 28, 6-(2-morpholinoethoxy)-3-(4-chlorophenyl)-2-(pyridin-3-yl)-1H-inden-1-one]",134
7,"O=C1C(c2ccc(F)c(F)c2)=C(c2ccc(Cl)cc2)c2ccc(OCCN3CCOCC3)cc21 [Example 29, 6-(2-morpholinoethoxy)-3-(4-chlorophenyl)-2-(3,4-difluorophenyl)-1H-inden-1-one]",84
8,"O=C1C(c2cncnc2)=C(c2ccc(Cl)cc2)c2ccc(OCCN3CCOCC3)cc21 [Example 30, 6-(2-morpholinoethoxy)-3-(4-chlorophenyl)-2-(pyrimidin-5-yl)-1H-inden-1-one]",150
9,"O=C1C(c2ccc(C(F)(F)F)cc2)=C(c2ccc(C(F)(F)F)cc2)c2ccc(OCCN3CCOCC3)cc21 [Example 33, 6-(2-morpholinoethoxy)-2,3-bis(4-(trifluoromethyl)phenyl)-1H-inden-1-one]",65
10,"O=C1C(c2ccc(F)c(F)c2)=C(c2ccc(C(F)(F)F)cc2)c2ccc(OCCN3CCOCC3)cc21 [Example 34, 6-(2-morpholinoethoxy)-3-(4-(trifluoromethyl)phenyl)-2-(3,4-difluorophenyl)-1H-inden-1-one]",78
11,"O=C1C(c2cncnc2)=C(c2ccc(C(F)(F)F)cc2)c2ccc(OCCN3CCOCC3)cc21 [Example 35, 6-(2-morpholinoethoxy)-3-(4-(trifluoromethyl)phenyl)-2-(pyrimidin-5-yl)-1H-inden-1-one]",79
12,"O=C1C(c2cccnc2)=C(c2cc(F)cc(F)c2)c2ccc(OCCN3CCOCC3)cc21 [Example 36, 6-(2-morpholinoethoxy)-3-(3,5-difluorophenyl)-2-(pyridin-3-yl)-1H-inden-1-one hydrochloride salt]",224
13,"O=C1C(c2ccc(C(F)(F)F)cc2)=C(c2cc(F)cc(F)c2)c2ccc(OCCN3CCOCC3)cc21 [Example 37, 6-(2-morpholinoethoxy)-2-(4-(trifluoromethyl)phenyl)-3-(3,5-difluorophenyl)-1H-inden-1-one]",80
14,"O=C1C(c2ccc(F)c(F)c2)=C(c2cc(F)cc(F)c2)c2ccc(OCCN3CCOCC3)cc21 [Example 38, 6-(2-morpholinoethoxy)-2-(3,4-difluorophenyl)-3-(3,5-difluorophenyl)-1H-inden-1-one]",77
15,"O=C1C(c2cncnc2)=C(c2cc(F)cc(F)c2)c2ccc(OCCN3CCOCC3)cc21 [Example 39, 6-(2-morpholinoethoxy)-3-(3,5-difluorophenyl)-2-(pyrimidin-5-yl)-1H-inden-1-one]",92
16,"C[n+]1cccc(C2=C(c3ccccc3)c3ccc(OCC[N+]4(C)CCOCC4)cc3C2=O)c1 [Example 40, 4-methyl-4-(2-{[2-(1-methylpyridin-1-ium-3-yl)-1-oxo-3-phenyl-1H-inden-6-yl]oxy}ethyl)morpholin-4-ium diiodide]",291
17,"C[n+]1cccc(C2=C(c3ccccc3)c3ccc(OCCN4CCOCC4)cc3C2=O)c1 [Example 41, 1-methyl-3-{6-[2-(morpholin-4-yl)ethoxy]-1-oxo-3-phenyl-1H-inden-2-yl}pyridin-1-ium iodide]",329
18,"O=C1C(c2ccc[n+]([O-])c2)=C(c2ccccc2)c2ccc(OCC[N+]3([O-])CCOCC3)cc21 [Example 43, 4-oxido-4-(2-{[2-(1-oxidopyridin-1-ium-3-yl)-1-oxo-3-phenyl-1H-inden-6-yl]oxy}ethyl)morpholin-4-ium]",125
